Experimental data taken from publication PMC10700596 (Nature Communications, 2023).
Like-named read-outs stand apart in the source and are kept apart here.

Key:
EP4R = target: T1, EP4R (Homo sapiens, UniProt P35408); assay: PRESTO-Tango β-arrestin2 recruitment assay; format: cell-based
T1 construct: Tango fusion cassette (only 'tango' is printed); expressed in transfected cells; host or cells: HTLA cells (tTA-dependent luciferase reporter, β-arrestin2-TEV fusion)

in vivo = format: in vivo, mice
[1] = male, CD-1, mouse, plasma, ip, 10 mg/kg, mice, IP 10 mg/kg, plasma, mean of 3 animals, read-out: Plasma concentration C (mean)
[2] = male, CD-1, mouse, plasma, ip, 10 mg/kg, mice, IP 10 mg/kg, plasma, single animal, D=1, read-out: Final plasma concentration, individual sample
[3] = male, CD-1, mouse, plasma, iv, 10 mg/kg, mice, IV 10 mg/kg, plasma, single animals, read-out: Plasma concentration, Final (individual mouse)
[4] = male, CD-1, mouse, plasma, iv, 10 mg/kg, mice, IV 10 mg/kg, plasma, read-out: Plasma concentration C (mean)
[5] = male, CD-1, mouse, plasma, po, 30 mg/kg, mice, PO 30 mg/kg, plasma, read-out: Plasma concentration C (mean)
[6] = male, CD-1, mouse, plasma, po, 30 mg/kg, mice, PO 30 mg/kg, plasma, single animals, read-out: Plasma concentration, Final (individual mouse)

T1 sequence (P35408 whole entry, the tested form may be a part): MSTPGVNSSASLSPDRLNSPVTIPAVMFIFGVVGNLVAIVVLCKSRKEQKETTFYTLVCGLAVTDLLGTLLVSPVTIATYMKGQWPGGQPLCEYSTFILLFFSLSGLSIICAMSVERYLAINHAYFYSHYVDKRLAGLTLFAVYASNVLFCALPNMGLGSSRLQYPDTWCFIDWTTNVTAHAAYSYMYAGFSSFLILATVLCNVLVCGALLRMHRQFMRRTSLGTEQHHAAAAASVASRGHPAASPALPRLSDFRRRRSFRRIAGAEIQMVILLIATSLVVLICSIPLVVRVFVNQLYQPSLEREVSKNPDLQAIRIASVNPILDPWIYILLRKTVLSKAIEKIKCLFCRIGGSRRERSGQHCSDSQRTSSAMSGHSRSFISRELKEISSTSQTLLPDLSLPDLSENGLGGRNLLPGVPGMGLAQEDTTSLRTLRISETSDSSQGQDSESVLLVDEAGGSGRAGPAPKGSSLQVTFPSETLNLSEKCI

With `O=C([O-])C1CCC2(CC1)CC(Nc1ncnc3[nH]c4c(F)cccc4c13)C2.[Na+]` (stereo not drawn) [Compound 77, [Na+].[O-]C(=O)C1CCC2(CC(C2)NC=3N=CN=C4NC=5C(F)=CC=CC5C34)CC1] the IC50 (EP4R; PRESTO-Tango IC50 (nM)) was 232 nM, the Ki (EP4R; calculated using the Cheng Prusoff equation, read-out: PRESTO-Tango Ki*) was 46 nM and the “concentrations in blood compared to CJ-42794” value (in vivo; 10 mg/kg i.p., two to four hours after injection) was “higher concentrations in blood two to four hours after injection”. The concentration at 5 min (in vivo; [1]) was 2420 ng/mL, the concentration at 5 min (in vivo; [2]) was 2380 ng/mL and the concentration at 15 min (in vivo; [1]) was 7250 ng/mL. For the same molecule, the concentration at 15 min (in vivo; [2]) was 6880 ng/mL, the concentration at 30 min (in vivo; [1]) was 6710 ng/mL and the concentration at 30 min (in vivo; [2]) was 8130 ng/mL. For the same molecule, the concentration at 60 min (in vivo; [1]) was 9910 ng/mL, the concentration at 60 min (in vivo; [2]) was 10900 ng/mL and the concentration at 120 min (in vivo; [1]) was 6380 ng/mL. It also gave a concentration at 240 min (in vivo; [1]) of 3590 ng/mL, a concentration at 360 min (in vivo; [1]) of 1980 ng/mL and a concentration at 360 min (in vivo; [2]) of 1660 ng/mL. It also gave a concentration at 480 min (in vivo; [1]) of 753 ng/mL, a concentration at 480 min (in vivo; [2]) of 889 ng/mL and a concentration at 1440 min (in vivo; [1]) of 17 ng/mL. For the same molecule, the concentration at 1440 min (in vivo; [2]) was 18.9 ng/mL, the Cmax (in vivo; male, CD-1, mouse, plasma, ip, 10 mg/kg i.p., mice) was 9910 ng/mL and the AUC (in vivo; male, CD-1, mouse, plasma, ip, 10 mg/kg i.p., mice, read-out: plasma AUC (converted)) was 39500 ng·h/mL. It also gave a concentration at 5 min (in vivo; [3]) of 24100 ng/mL, a concentration at 5 min (in vivo; [4]) of 26200 ng/mL and a concentration at 15 min (in vivo; [3]) of 14400 ng/mL. The concentration at 15 min (in vivo; [4]) was 17000 ng/mL, the concentration at 30 min (in vivo; [3]) was 10900 ng/mL and the concentration at 30 min (in vivo; [4]) was 12700 ng/mL. It also gave a concentration at 60 min (in vivo; [3]) of 11000 ng/mL, a concentration at 60 min (in vivo; [4]) of 10500 ng/mL and a concentration at 120 min (in vivo; [3]) of 4760 ng/mL. The concentration at 120 min (in vivo; [4]) was 4090 ng/mL, the concentration at 240 min (in vivo; [3]) was 2370 ng/mL and the concentration at 240 min (in vivo; [4]) was 2080 ng/mL. For the same molecule, the concentration at 360 min (in vivo; [3]) was 1260 ng/mL, the concentration at 360 min (in vivo; [4]) was 1730 ng/mL and the concentration at 480 min (in vivo; [4]) was 1240 ng/mL. It also gave a concentration at 1440 min (in vivo; [4]) of 43.2 ng/mL, an AUC (in vivo; male, CD-1, mouse, plasma, iv, 10 mg/kg i.v., mice, read-out: AUC (converted)) of 46200 ng·h/mL and a bioavailability (in vivo; male, CD-1, mouse, plasma, oral, 30 mg/kg p.o. vs 10 mg/kg i.v., mice) of 78%. The concentration at 5 min (in vivo; [5]) was 4340 ng/mL, the concentration at 15 min (in vivo; [6]) was 17600 ng/mL and the concentration at 15 min (in vivo; [5]) was 24200 ng/mL. The concentration at 30 min (in vivo; [6]) was 23000 ng/mL, the concentration at 30 min (in vivo; [5]) was 21700 ng/mL and the concentration at 60 min (in vivo; [6]) was 24400 ng/mL. For the same molecule, the concentration at 60 min (in vivo; [5]) was 19600 ng/mL, the concentration at 120 min (in vivo; [6]) was 11600 ng/mL and the concentration at 120 min (in vivo; [5]) was 9140 ng/mL. It also gave a concentration at 240 min (in vivo; [6]) of 5200 ng/mL, a concentration at 240 min (in vivo; [5]) of 3600 ng/mL and a concentration at 360 min (in vivo; [6]) of 4400 ng/mL.
